Measured values published in patent US8202910B2 (Sequella, Inc., priority 2006, dated 2012).
Converted amounts (≈) assume the structure as drawn. Like-named read-outs stand apart in the source and are kept apart here.

Experiments:
MDR strain TN587 = assay: microbe, parasite or virus in culture; assay type: cell-based, Mycobacterium tuberculosis; conditions: for Drug Resistance of MDR Strain: 587 W; for MIC: Mycobacterium tuberculosis
MDR Strain TN576 = assay: microbe, parasite or virus in culture; assay type: cell-based, Mycobacterium tuberculosis; conditions: for Drug Resistance of MDR Strain: 576 W1; for MIC: Mycobacterium tuberculosis
MDR strain TN3086 (3806) = assay: microbe, parasite or virus in culture; assay type: cell-based, Mycobacterium tuberculosis; conditions: for MIC: Mycobacterium tuberculosis; for Drug Resistance of MDR Strain: 3806 W1
EMB-resistant strain = assay: microbe, parasite or virus in culture; assay type: cell-based, M. tuberculosis; conditions: Mycobacterium tuberculosis
[1] = tested on: M. tuberculosis clinical isolates (drug susceptible and drug resistant); assay type: cell-based; conditions: more than 30 clinical isolates
INH-resistant MTB strain = assay: microbe, parasite or virus in culture; assay type: cell-based, M. tuberculosis; conditions: Mycobacterium tuberculosis

| Compound | Drug Resistance of MDR Strain (MDR strain TN587) | Drug Resistance of MDR Strain (MDR Strain TN576) | MIC (MDR strain TN587; TN587, strain 587) [µg/mL] | MIC (MDR strain TN3086 (3806); strain 3806) [µg/mL] | MIC (MDR Strain TN576; strain 576) [µg/mL] | Drug Resistance of MDR Strain (MDR strain TN3086 (3806)) | also measured |
| --- | --- | --- | --- | --- | --- | --- | --- |
| O=C(O)c1cn(C2CC2)c2cc(N3CCNCC3)c(F)cc2c1=O [Cip, Ciprofloxacin] | S | S |  |  |  |  |  |
| C[C@@H]1[C@H]2C[C@@H](C[C@H]1NCCNC1CCCCCCC1)C2(C)C [Compound 59, N-(Cyclooctyl)-N′-(1R, 2R, 3R, 5S)-(−)-isopinocampheylethane-1,2-diamine] |  |  | 0.05 | 0.05 | 0.1 |  |  |
| CC(C)=CCC/C(C)=C/CNCCNC1C2CC3CC(C2)CC1C3 (stereo not drawn) [Compound 109, N-Geranyl-N′-(2-adamanthyl)ethane-1,2-diamine] |  |  | 0.2 | 0.1 | 0.2 |  | MIC (EMB-resistant strain): 0.5 µg/mL (≈ 1.51 µM); MIC range [1]: 0.16 to 0.64 µg/mL; MIC (INH-resistant MTB strain): 0.25 µg/mL (≈ 0.756 µM) |
| N[C@@H]1CON=C1O [Cyc, Cycloserine] | S | S |  |  |  |  |  |
| CC[C@@H](CO)NCCN[C@@H](CC)CO [EMB, Ethambutol, reference compound] | R | R |  |  |  | R | MIC (MDR strain TN587; TN587, read-out: MIC of ethambutol, MDR strain, TN587): 12.5 to 25 µM; MIC (MDR strain TN3086 (3806); read-out: MIC of ethambutol, MDR strain, TN3086): 12.5 to 25 µM; MIC (MDR Strain TN576; read-out: MIC of ethambutol, MDR strain, TN576): 12.5 to 25 µM |
| CCc1cc(C(N)=S)ccn1 [Eth, Ethionamide] | S | R |  |  |  | S |  |
| NNC(=O)c1ccncc1 [INH, Isoniazid] | R | R |  |  |  | R |  |
| NC[C@H]1O[C@H](O[C@H]2[C@H](O)[C@@H](O[C@H]3O[C@H](CO)[C@@H](O)[C@H](N)[C@H]3O)[C@H](N)C[C@@H]2N)[C@H](O)[C@@H](O)[C@@H]1O [Kan, Kanamycin] | R | R |  |  |  | R |  |
| CC1(C)CC2CC(C)(CN2CCNC[C@@H]2CCC3C[C@@H]2C3(C)C)C1 [MP 116] |  |  | 6.25 | 3.15 | 3.15 |  |  |
| C[C@@H]1C2C[C@@H](C[C@H]1NCCNC[C@@H]1CCC3C[C@@H]1C3(C)C)C2(C)C [MP 117] |  |  | 3.15 | 3.15 | 3.15 |  |  |
| CO[C@H]1/C=C/O[C@@]2(C)Oc3c(C)c(O)c4c(O)c(c(/C=N/N5CCN(C)CC5)c(O)c4c3C2=O)NC(=O)/C(C)=C\C=C\[C@H](C)[C@H](O)[C@@H](C)[C@@H](O)[C@@H](C)[C@H](OC(C)=O)[C@@H]1C [RIF, Rifampicin] | R | R |  |  |  | R |  |
| CC1(C)C2CCC(CNCCNCC(c3ccccc3)c3ccccc3)[C@@H]1C2 (stereo partly drawn) [RL 241] |  |  | 1.5 | 1.5 | 1.5 |  |  |
| [H]/N=C(/N)N[C@H]1[C@H](O)[C@@H](O)[C@H](O[C@@H]2O[C@@H](C)[C@](O)(C=O)[C@H]2O[C@@H]2O[C@@H](CO)[C@H](O)[C@@H](O)[C@@H]2NC)[C@@H](N/C(N)=N\[H])[C@@H]1O [SM, Streptomycin] | R | R |  |  |  | R |  |
| Capreomycin | S | R |  |  |  |  |  |
